Values quoted from earlier work, collected in patent publication US20240173376A1, “TREM-1 INHIBITORS FOR THE TREATMENT OF MARFAN SYNDROME” (INSERM (INSTITUT NATIONAL DE LA SANTÉ ET DE LA RECHERCHE …, priority 2021, published 2024).

Tests used:
[1] = Marfan patients (Shores et al 1994; Ladouceur et al 2007)
[2] = test system: AT1R; details: animal model of Marfan's disease (Hibashi et al, Science, 2006)
[3] = biological target: T1, AT1R (Homo sapiens, UniProt P30556)
T1 construct: host or cells: patients in randomized clinical studies
T1 sequence (P30556 1-359): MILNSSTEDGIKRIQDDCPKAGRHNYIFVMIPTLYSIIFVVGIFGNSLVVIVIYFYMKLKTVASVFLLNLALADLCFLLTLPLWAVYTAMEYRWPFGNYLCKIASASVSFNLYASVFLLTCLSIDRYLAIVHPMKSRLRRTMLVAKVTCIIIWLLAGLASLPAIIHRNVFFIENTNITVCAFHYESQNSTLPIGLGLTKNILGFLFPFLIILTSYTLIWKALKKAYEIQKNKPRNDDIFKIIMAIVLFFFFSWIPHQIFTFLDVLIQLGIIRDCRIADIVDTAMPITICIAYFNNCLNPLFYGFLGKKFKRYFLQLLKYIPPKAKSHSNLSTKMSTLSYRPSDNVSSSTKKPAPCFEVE

benefit in humans ([3]; randomized, double-blind, multicenter study (Milleron et al, Eur Heart J))	progression of aortic dilatation in humans ([3]; study with comparable methodology, N=192 (Mullen et al. Lancet 2019))	Compound	aortic dilatation and risk of dissection [1]	arterial wall architecture and aortic dilatation [2]
–	–	CC(C)NCC(O)COc1cccc2ccccc12 (stereo not shown) [propranolol]	limits aortic dilatation and the risk of dissection	–
no benefit	a benefit	CCCCc1nc(Cl)c(CO)n1Cc1ccc(-c2ccccc2-c2nn[nH]n2)cc1 [Losartan]	–	improves arterial wall architecture and reduces aortic dilatation
